In paper PMC8622623, “Histamine H3 Receptor Ligands—KSK-59 and KSK-73—Reduce Body Weight Gain in a Rat Model of Excessive Eating” (Pharmaceuticals, 2021):
Read-outs that look alike come from different tables or passages of the source.

What was measured:
[1] = tested on: non-obese rats fed palatable diet; experiment: Intraperitoneal glucose tolerance test after 28 administrations; type: in vivo, female Wistar rats; details: for blood glucose levels at 30 or/and 60 min after glucose load: KSK compounds 10 mg/kg b.w. or bupropion/naltrexone, glucose 1 g/kg i.p., vs control fed palatable feed; for AUC of IPGTT: vs control rats fed high-calorie feed
Experimental: The test was performed on the 29th day of the experiment. After twenty-eight administrations of the test compounds, food was discontinued for 20 h and then glucose tolerance was tested. Glucose (1 g/kg b.w.) was administrated i.p.. […] The area under the curve (AUC) was calculated using the trapezoidal rule.

[2] = Pharmacokinetics after single i.p. administration; type: in vivo; details: single i.p. 10 mg/kg; for AUC(0-inf) / Cmax / Tmax / CL/F / MRT / k el / Vd/F / half-life: ip; for AUC(0-inf): heading: AUC0-inf; for CL/F: read-out: CLS/F (clearance) (converted); for MRT: read-out: MRT (mean residence time); for k el: read-out: λz (terminal elimination rate constant) (converted); for Vd/F / half-life: rat, plasma; for Vd/F: n = 3, read-out: Vz/F (volume of distribution); for half-life: n = 3, read-out: t0.5λz (half-life) (converted)
Experimental: Six rats divided into two experimental groups were used in pharmacokinetic experiments. Three days before the experiment, rats’ jugular vein was cannulated allowing for the multiple blood sampling from the single animal. Investigated compounds suspended in 1% Tween 80 were administered i.p. at the single dose of 10 mg/kg. Blood samples (approximately 300 µL) were collected to Eppendorf tubes containing heparin at 5, 15, 30, 60, 120, 240 and 360 min after dosing. Plasma was harvested by centrifuging at 5000× g for 10 min and stored at −30 °C until bioanalysis.
Plasma concentrations of KSK-59 or KSK-73 were measured by liquid chromatography tandem mass spectrometry (LC-MS/MS) method. Samples (50 μL) were deproteinized at the ratio of 1:3 (v/v) with acetonitrile containing an internal standard (IS—pentoxifiline), briefly vortexed and then centrifuged for 10 min at the speed of 8000× g (Eppendorf miniSpin centrifuge). The supernatant was transferred into the autosampler vials and a sample volume of 10 μL was injected into LC-MS/MS system.
Chromatographic separation was carried out on XBridge™ C18 (3 × 50 mm, 5 µm, Waters, Dublin, Ireland) analytical column using the HPLC system Agilent 1100 (Agilent Technologies, Waldbronn, Germany). The mobile phase containing 0.1% formic acid in acetonitrile and in water was run at 0.3 mL/min in the gradient mode. Mass spectrometric detection was performed on an Applied Biosystems MDS Sciex (Concord, ON, Canada) API 2000 triple quadrupole mass spectrometer. Electrospray ionization (ESI) in the positive ion mode was used for ion production. The tandem mass spectrometer was operated at unit resolution in the selected reaction monitoring mode (SRM), monitoring the transitions of the protonated molecular ions m/z 382 to 107 for KSK-59, m/z 410 to 107 for KSK-73 and m/z 279 to 181 for IS. Data acquisition and processing were accomplished using the Applied Biosystems Analyst version 1.6 software. The calibration curves were constructed by plotting the ratio of the peak area of the studied compound to IS versus drug concentration and generated by weighted (1/x·x) linear regression analysis. The validated quantitation ranges were from 1 to 2000 ng/mL. Calculated accuracy and precision were within the ranges proposed by guidelines for bioanalytical methods validation (FDA, EMA). No significant matrix effect was observed and there were no stability related problems during the routine analysis of the samples.
Pharmacokinetic parameters were calculated by employing a non-compartmental approach, using Monolix version 2019R1 (Antony, France: Lixoft SAS, 2019) software. The area under the mean plasma concentration versus time curve extrapolated to infinity (AUC0-inf) was estimated using the log/linear trapezoidal rule. AUMC0-inf was estimated by calculation of total area under the first-moment curve by combining trapezoid calculation of AUMC0-t and extrapolated area. The mean residence time (MRT) was calculated from AUMC0-inf/AUC0-inf. The terminal rate constant (λz) was calculated by log-linear regression of the drug concentration data in the terminal phase and the terminal half-life (t1/2) were calculated as 0.693/λz. The clearance (CL/F) was estimated from the administered dose divided by AUC0-inf. The apparent volume of distribution during terminal phase (Vz/F) was calculated from (CL/F)/λz.

[3] = tested on: non-obese rats fed palatable diet; experiment: Spontaneous activity (RFID TraffiCage); type: in vivo, female Wistar rats; details: KSK compounds 10 mg/kg, vs control fed palatable diet; for spontaneous activity after chronic administration: 27th day, i.p.; for spontaneous activity after first administration: day 1, i.p.
Experimental: The spontaneous activity of rats was measured on the 1st and 27th day of the treatment with a special RFID-system—TraffiCage (TSE-Systems, Germany). The animals were subcutaneously implanted with transmitter identification (RFID), which enabled the presence and time spent in different areas of the cage to be counted and then the data were grouped in a special computer program.

H3 histamine receptor = biological target: T1, H3 histamine receptor (Homo sapiens, UniProt Q9Y5N1); experiment: Lance cAMP intrinsic activity assay (antagonist dose-response); type: cell-based
T1 construct: host or cells: recombinant frozen ready-to-use cells
Experimental: Intrinsic activity studies were performed by two methods, Aequoscreen and Lance cAMP assays according to the manufacturer of the ready to use cells with stable expression of the H3 histamine receptor (Perkin Elmer, Waltham, MA, USA).
The LANCE Ultra cAMP assay as a homogeneous time-resolved fluorescence resonance energy transfer (TR-FRET) immunoassay is designed to measure cAMP produced upon modulation of adenylyl cyclase activity by GPCRs. The assay is based on the competition between the europium (Eu) chelate-labeled cAMP tracer and sample cAMP for binding sites on cAMP-specific monoclonal antibodies labeled with the ULight dye.
For measurement cells (frozen, ready to use) were thawed and resuspended in 4 mL of HBSS 1X. Then cells suspension was placed in a 15 mL Falcon tube and centrifuged for 10 min at 275× g. Pellet was resuspended in 1.5 mL HBSS 1X to determine cells concentration, and after next centrifugation cells were resuspended in stimulation buffer at appropriate concentration. […] Cell stimulation was performed for 30 min at RT°, and the agonist and antagonists were added simultaneously.

female Wistar rats = experiment: Visceral illness via kaolin intake (pica behavior); type: in vivo; details: for kaolin clay intake: single i.p. 10 mg/kg b.w.; for kaolin clay intake / water intake (pica model): vs control group that received i.p. CuSO4; for kaolin intake: KSK compounds 10 mg/kg or bupropion/naltrexone, vs vehicle control and CuSO4 control
Experimental: The method was based on the works by Takeda et al. and Yamamoto et al. with minor modification. The experiment lasted for five days. In addition to free access to feed, animals had also free access to a white kaolin. For the first few days, the animals were accustomed to the presence of kaolin in their cages. […] Moreover, animals were weighed before the compounds administration and 24 h after.

[4] = antagonist dose-response with reference agonist (R)-alpha-methylhistamine at EC80, read-out: Lance cAMP IC50
[5] = text summary over both methods (Lance cAMP and Aequoscreen), read-out: IC50 value

T1 sequence (Q9Y5N1 whole entry): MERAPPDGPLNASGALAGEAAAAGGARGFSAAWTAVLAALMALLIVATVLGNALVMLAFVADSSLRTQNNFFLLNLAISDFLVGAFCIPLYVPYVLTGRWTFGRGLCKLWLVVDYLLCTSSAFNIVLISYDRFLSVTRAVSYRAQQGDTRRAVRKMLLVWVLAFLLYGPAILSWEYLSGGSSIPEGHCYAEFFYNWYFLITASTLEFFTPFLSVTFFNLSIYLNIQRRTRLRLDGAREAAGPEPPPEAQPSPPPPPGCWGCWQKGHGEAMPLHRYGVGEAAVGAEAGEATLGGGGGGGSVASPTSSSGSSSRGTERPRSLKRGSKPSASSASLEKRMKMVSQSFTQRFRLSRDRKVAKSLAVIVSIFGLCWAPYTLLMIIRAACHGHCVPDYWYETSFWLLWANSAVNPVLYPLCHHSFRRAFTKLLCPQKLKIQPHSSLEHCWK

SMILES	blood glucose levels at 30 or/and 60 min after glucose load [1]	AUC of IPGTT [1]	AUC(0-inf) ([2]; 10 mg/kg, rat plasma, n = 3) [ng·h/mL]	Cmax ([2]; rat plasma, n = 3) [ng/mL]	Tmax ([2]; rat plasma, n = 3) [min]	CL/F ([2]; rat plasma, n = 3) [mL/min/kg]	MRT ([2]; rat plasma, n = 3) [h]	k el ([2]; rat plasma, n = 3) [s⁻¹]	time at which Cmax was reached (first sampling point) ([2]; rat plasma) [min]	Vd/F ([2]; 10 mg/kg) [L/kg]	half-life ([2]; 10 mg/kg) [h]	spontaneous activity after chronic administration [3]	spontaneous activity after first administration [3]	IC50 (H3 histamine receptor; [4]) [nM]	IC50 (H3 histamine receptor; [5]) [nM]	kaolin clay intake (female Wistar rats)	water intake (pica model) (female Wistar rats; single i.p., 24 h)	kaolin intake (female Wistar rats; single i.p., 24 h)	other results
CC(=O)c1ccc(OCCCCCCN2CCN(c3ccncc3)CC2)cc1.O=C(O)C(=O)O [KSK-59, 1-(4-((6-(4-(pyridin-4-yl)piperazin-1-yl)hexyl)oxy)phenyl)ethan-1-one oxalate]	significantly lower	statistically significantly decreased	538	96	4.98	1120	2.04	0.000122	5	152	1.6	did not affect spontaneous activity	did not affect spontaneous activity	3.79 ± 0.4	~3	consumed significantly less kaolin clay	lower water intake	did not consume more kaolin	Vz/F (volume of distribution) ([2]; rat plasma, n = 3, 10 mg/kg): 152.22 L/kg; t0.5λz (half-life) ([2]; rat plasma, n = 3, 10 mg/kg): 1.58 h
CC(=O)c1ccc(OCCCCCCCCN2CCN(c3ccncc3)CC2)cc1.O=C(O)C(=O)O [KSK-73, 1-(4-((8-(4-(pyridin-4-yl)piperazin-1-yl)octyl)oxy)phenyl)ethan-1-one oxalate]	significantly lower	statistically significantly decreased	888	216	4.98	675	4.2	5.28e-05	5	216	3.7	no such changes were observed	statistically significant decrease in spontaneous activity	10.5 ± 1.5	10 to 20	consumed significantly less kaolin clay	lower water intake	did not consume more kaolin	calorie intake (pica model) (female Wistar rats; single i.p., 24 h, vs vehicle control): consumed fewer calories
